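Values below derive from 48-hour exposures of cells grown in 96-well plates, with endpoints linearly interpolated between the two concentrations bracketing the appropriate inhibition level. The concentration for 50% growth inhibition is given as GI50.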 Active and inactive are the calls of the source. No stated cut-off is given here; in the data, active = GI50 up to about 1.1 µM and inactive = higher.
Key:
Assay in all cases: DTP human tumour cell line panel, 48 h
Hs-578T = tested on: Hs-578T
HOP-92 = tested on: HOP-92
KM12 = tested on: KM12
DU-145 = tested on: DU-145
NCI-H23 = tested on: NCI-H23
HL-60 = tested on: HL-60
RXF 393 = tested on: RXF 393
A498 = tested on: A498
K562 = tested on: K562
SW-620 = tested on: SW-620
EKVX = tested on: EKVX
OVCAR-4 = tested on: OVCAR-4
A549 = tested on: A549
MCF7 = tested on: MCF7
UACC-257 = tested on: UACC-257
BT-549 = tested on: BT-549
MDA-MB-435 = tested on: MDA-MB-435
T47D = tested on: T47D
HOP-62 = tested on: HOP-62
LOX IMVI = tested on: LOX IMVI

Measured: GI50

CC(C)=CC(O)C/C(C)=C/CC/C(C)=C/CCC1(C)C(CCCO)/C(=C(/C)C=O)CCC1(C)O (stereo not given)
inactive: Hs-578T 35.6 µM | HOP-92 22.8 µM | KM12 22.2 µM | DU-145 57 µM | NCI-H23 20 µM | HL-60 23 µM | RXF 393 25.7 µM | A498 34.2 µM | K562 2.99 µM | SW-620 40.6 µM | EKVX 27.5 µM | OVCAR-4 25.5 µM | A549 28.4 µM | MCF7 37.4 µM | UACC-257 31.5 µM | BT-549 40.6 µM | MDA-MB-435 31 µM | T47D 61.9 µM | HOP-62 25.9 µM | LOX IMVI 32.5 µM

CN(C)c1n/c(=N/Cc2ccncc2)ss1
inactive: Hs-578T 23.6 µM | HOP-92 > 63.1 µM | KM12 > 10 µM | DU-145 > 10 µM | NCI-H23 17.5 µM | HL-60 4.39 µM | RXF 393 31.8 µM | A498 > 100 µM | K562 17 µM | SW-620 23.9 µM | EKVX > 71.9 µM | OVCAR-4 18.7 µM | A549 > 10 µM | MCF7 61 µM | UACC-257 > 39.7 µM | BT-549 19.8 µM | MDA-MB-435 38.9 µM | T47D 10.7 µM | HOP-62 > 10 µM | LOX IMVI 16.4 µM

O=c1[nH]c(=O)n([C@@H]2O[C@H](CO)[C@@H](O)[C@@H]2F)cc1I [FIALURIDINE]
inactive: Hs-578T > 100 µM | HOP-92 > 100 µM | KM12 > 100 µM | DU-145 > 100 µM | NCI-H23 > 100 µM | HL-60 > 100 µM | RXF 393 54.1 µM | A498 59.4 µM | K562 > 100 µM | SW-620 > 100 µM | EKVX > 100 µM | OVCAR-4 > 100 µM | A549 44.2 µM | MCF7 67.6 µM | UACC-257 > 100 µM | BT-549 39.2 µM | MDA-MB-435 > 100 µM | T47D > 100 µM | HOP-62 > 100 µM | LOX IMVI 46.3 µM
